Source: patent US7855209B2, “Allosteric modulators of the A1 adenosine receptor” (King Pharmaceuticals Research and Development, Inc., priority 2006, dated 2010)

Legend:
[1] = biological target: T1, human A1-adenosine receptor (Homo sapiens, UniProt P30542); assay: Saturation binding of [3H]CCPA to hCHO-A1 membranes (BMAX)
T1 construct: expressed in transfected cells; host or cells: CHO cells (hCHO-A1 clone)
T1 sequence (P30542 1-326): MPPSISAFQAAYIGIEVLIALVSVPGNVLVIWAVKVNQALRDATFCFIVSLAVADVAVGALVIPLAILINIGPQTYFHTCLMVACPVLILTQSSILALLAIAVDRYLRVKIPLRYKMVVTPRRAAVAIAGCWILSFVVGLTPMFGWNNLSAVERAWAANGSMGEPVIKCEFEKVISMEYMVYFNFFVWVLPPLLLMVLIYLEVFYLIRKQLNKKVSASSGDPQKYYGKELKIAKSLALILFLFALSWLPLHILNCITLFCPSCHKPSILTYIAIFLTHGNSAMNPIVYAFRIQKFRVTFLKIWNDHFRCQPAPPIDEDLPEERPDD
Description: Membrane Preparation from CHO Cells Transfected with the Human Recombinant A1, A2A and A3 Adenosine Receptors:
The hCHO-A1, hCHO-A2A and hCHO-A3 cell clones are grown adherently and maintained in Dulbecco's modified Eagle's medium with nutrient mixture F12, containing 10% fetal calf serum, penicillin (100 U/mL), streptomycin (100 μg/mL), L-glutamine (2 mM), geneticine (G418, 0.2 mg/mL) at 37° C. in 5% CO2/95% air (Klotz et al. Naunyn-Schmied. Arch Pharm. 1998, 357, 1-9). Cells are split two or three times weekly at a ratio of between 1:5 and 1:10. For membrane preparation the culture medium is removed. […] The protein concentration is determined according to a Bio-Rad method (Bradford, 1976) with bovine albumin as a standard reference. […]
To determine the effect of the compounds of the present invention on the binding to A1, A2A and A3 receptors, membranes from hCHO-A1, hCHO-A2A, hCHO-A3 are incubated in a buffer solution in the absence and in the presence of the examined compounds. […] Bound and free radioactivity are separated by filtering the assay mixture through Whatman GF/B glass fibre filters using a Micro-mate 196 cell harvester (Packard Instrument Company). The filter bound radioactivity was counted on Top Count Microplate Scintillation Counter (efficacy 57%) with Micro-Scint 20. […]

[2] = biological target: T1, human A1-adenosine receptor; assay: Functional assay measuring the cAMP level in CHO cells expressing the human A1-adenosine receptor; format: cell-based
Description: Measurement of cAMP Enhancement in CHO Cells (Functional Assay):
Allosteric enhancement is measured as the action of a test compound at different concentrations (0.01, 0.1, 1 and 10 μM) to reduce the cAMP content of hCHO-A1 cells. To initiate an experiment, growth medium is removed from the 12-well plates and cells are washed once with warm Hanks' buffered saline. The wash solution is then removed and replaced with fresh Hanks' solution containing forskolin (1 μM), rolipram (20 μM), N^6-cyclopentyladenosine (CPA, 0.01 nM), adenosine deaminase (2 U/mL), and the test compound. Forskolin is used to stimulate the activity of adenylyl cyclase, rolipram to inhibit cAMP phosphodiesterase, adenosine deaminase to degrade endogenous adenosine, and CPA to cause a small increase of the number of activated adenosine receptors. […] The content of cAMP in acidified extracts of cells is determined by radioimmunoassay as previously described (Kollias-Baker et al. J. Pharmacol. Exp. Ther. 1997, 281, 761-768). Because the magnitude of the effects of allosteric modulators on hCHO-A1 cells change subtly with passage number and differ slightly among different aliquots of cells, the actions of the test compounds and the action of a reference compound (PD 81,723) are assessed in each experiment. […]

Nc1scc(CN2CCC3(CC2)Oc2cccc(F)c2O3)c1C(=O)c1ccc(Cl)cc1 [Example 60, {2-Amino-4-(4-fluorospiro[benzo[d][1,3]-dioxole-2,4′-piperidine]-1′-ylmethyl)thiophen-3-yl}(4-chlorophenyl)methanone]
increase in the BMAX value of the agonist [3H]CCPA [1]: about 6 fold

Cc1sc(N)c(C(=O)c2ccc(Cl)cc2)c1CN1CCN(c2cccc(F)c2)CC1 [Example 88, {2-Amino-4-[(4-(3-fluorophenyl)piperazin-1-yl)methyl]-5-methylthiophen-3-yl}(4-chlorophenyl)methanone]
melting point: 140 to 141 °C

Nc1scc(CN2CCN(c3ccc(Cl)cc3)CC2)c1C(=O)c1ccc(Cl)cc1 [Example 4, {2-Amino-4-[4-((4-chlorophenyl)piperazin-1-yl)methyl]thiophen-3-yl}(4-chlorophenyl)methanone]
IC50 [2]: ~100 nM | increase of the BMAX value of the agonist [3H]CCPA ([1]; at 10 μM concentration, human A1 adenosine receptors): up to 600%
